Measurements as given in patent US11395857B2, “Radiolabeled melanocortin 1 receptor-specific alpha-melanocyte-stimulating hormone analogues for imaging or therapy” (PROVINCIAL HEALTH SERVICES AUTHORITY, priority 2018, dated 2022).
Read-outs that look alike come from different tables or passages of the source.

Key:
[1] = Biodistribution of 177Lu-labeled αMSH analogues in mice bearing B16F10 mouse melanoma; assay type: in vivo, C57BL/6J mice; settings: mouse, iv, total radioactivity, C57BL/6J mice, B16F10 melanoma
Procedure: (§1) The B16-F10 mouse melanoma cells were cultured and inoculated in mice as described in Example 1.
(§2) For biodistribution studies, approximately 1-2 MBq of ^177Lu-labeled αMSH analogues via tail vein under anesthesia. At 1, 4, 24, and 120 h p.i., the mice were euthanized by CO2 inhalation. Organs/tissues were harvested and the radioactivity was measured as described in Example 1.

B16F10 mouse melanoma = experiment: as above; assay type: in vivo, C57BL/6J mice; settings: C57BL/6J mice, B16F10 melanoma
Procedure: as §1, §2

In the case of `CCCC[C@H](NC(=O)CN1CCC(NC(=O)[C@H](CCCCNC(=O)CN2CCN(CC(=O)O)CCN(CC(=O)O)CCN(CC(=O)O)CC2)NC(=O)[C@H](CCC(=O)O)NC(=O)CCCc2ccc(I)cc2)CC1)C(=O)N[C@H]1CC(=O)NCCCC[C@@H](C(N)=O)N(C)C(=O)[C@H](Cc2c[nH]c3ccccc23)N(C)C(=O)[C@H](CCCNC(=N)N)N(C)C(=O)[C@@H](Cc2ccccc2)NC(=O)[C@H](Cc2c[nH]cn2)N(C)C1=O` [^177Lu-labeled CCZ01088, metal not drawn], the tissue uptake at 1 h ([1]; male, seminal glands, 1 h p.i., read-out: Biodistribution, Seminal glands) is reported as 0.52 ± 0.15 %ID/g, the tissue uptake at 4 h ([1]; male, seminal glands, 4 h p.i., read-out: Biodistribution, Seminal glands) is reported as 0.14 ± 0.04 %ID/g and the tissue uptake at 24 h ([1]; male, seminal glands, 24 h p.i., read-out: Biodistribution, Seminal glands) is reported as 0.08 ± 0.07 %ID/g. It also gave a tissue uptake at 120 h ([1]; male, seminal glands, 120 h p.i., read-out: Biodistribution, Seminal glands) of 0.04 ± 0.03 %ID/g, a tissue uptake at 4 h ([1]; male, testes, 4 h p.i., read-out: Biodistribution, Testes) of 0.33 ± 0.08 %ID/g and a tissue uptake at 24 h ([1]; male, testes, 24 h p.i., read-out: Biodistribution, Testes) of 0.17 ± 0.01 %ID/g. The tissue uptake at 120 h ([1]; male, testes, 120 h p.i., read-out: Biodistribution, Testes) was 0.11 ± 0.01 %ID/g, the tissue uptake at 1 h ([1]; adrenal glands, 1 h p.i., read-out: Biodistribution, Adrenal glands) was 3.69 ± 2.09 %ID/g and the tissue uptake at 4 h ([1]; adrenal glands, 4 h p.i., read-out: Biodistribution, Adrenal glands) was 0.88 ± 0.41 %ID/g. The tissue uptake at 24 h ([1]; adrenal glands, 24 h p.i., read-out: Biodistribution, Adrenal glands) was 0.62 ± 0.34 %ID/g, the tissue uptake at 120 h ([1]; adrenal glands, 120 h p.i., read-out: Biodistribution, Adrenal glands) was 0.34 ± 0.23 %ID/g and the tissue uptake at 1 h ([1]; blood, 1 h p.i., read-out: Biodistribution, Blood) was 7.41 ± 1.64 %ID/g. For the same compound, the tissue uptake at 4 h ([1]; blood, 4 h p.i., read-out: Biodistribution, Blood) was 1.44 ± 0.39 %ID/g, the tissue uptake at 24 h ([1]; blood, 24 h p.i., read-out: Biodistribution, Blood) was 0.09 ± 0.02 %ID/g and the tissue uptake at 120 h ([1]; blood, 120 h p.i., read-out: Biodistribution, Blood) was 0.01 %ID/g. It also gave a tissue uptake at 1 h ([1]; bone, 1 h p.i., read-out: Biodistribution, Bone) of 0.98 ± 0.12 %ID/g, a tissue uptake at 4 h ([1]; bone, 4 h p.i., read-out: Biodistribution, Bone) of 0.3 ± 0.08 %ID/g and a tissue uptake at 24 h ([1]; bone, 24 h p.i., read-out: Biodistribution, Bone) of 0.23 ± 0.04 %ID/g. The tissue uptake at 120 h ([1]; bone, 120 h p.i., read-out: Biodistribution, Bone) was 0.13 ± 0.09 %ID/g, the tissue uptake at 1 h ([1]; brain, 1 h p.i., read-out: Biodistribution, Brain) was 0.13 ± 0.02 %ID/g and the tissue uptake at 4 h ([1]; brain, 4 h p.i., read-out: Biodistribution, Brain) was 0.04 ± 0.02 %ID/g. It also gave a tissue uptake at 24 h ([1]; brain, 24 h p.i., read-out: Biodistribution, Brain) of 0.02 ± 0.01 %ID/g, a tissue uptake at 120 h ([1]; brain, 120 h p.i., read-out: Biodistribution, Brain) of 0.01 ± 0.01 %ID/g and a tissue uptake at 1 h ([1]; fat, 1 h p.i., read-out: Biodistribution, Fat) of 0.65 ± 0.37 %ID/g. The tissue uptake at 4 h ([1]; fat, 4 h p.i., read-out: Biodistribution, Fat) was 0.16 ± 0.07 %ID/g, the tissue uptake at 24 h ([1]; fat, 24 h p.i., read-out: Biodistribution, Fat) was 0.06 ± 0.04 %ID/g and the tissue uptake at 120 h ([1]; fat, 120 h p.i., read-out: Biodistribution, Fat) was 0.03 ± 0.01 %ID/g. The tissue uptake at 1 h ([1]; heart, 1 h p.i., read-out: Biodistribution, Heart) was 1.84 ± 0.31 %ID/g, the tissue uptake at 4 h ([1]; heart, 4 h p.i., read-out: Biodistribution, Heart) was 0.4 ± 0.1 %ID/g and the tissue uptake at 24 h ([1]; heart, 24 h p.i., read-out: Biodistribution, Heart) was 0.13 ± 0.02 %ID/g. For the same compound, the tissue uptake at 120 h ([1]; heart, 120 h p.i., read-out: Biodistribution, Heart) was 0.07 ± 0.02 %ID/g, the tissue uptake at 1 h ([1]; intestine, 1 h p.i., read-out: Biodistribution, Intestine) was 1.39 ± 0.37 %ID/g and the tissue uptake at 4 h ([1]; intestine, 4 h p.i., read-out: Biodistribution, Intestine) was 0.37 ± 0.11 %ID/g. For the same compound, the tissue uptake at 24 h ([1]; intestine, 24 h p.i., read-out: Biodistribution, Intestine) was 0.18 ± 0.03 %ID/g, the tissue uptake at 120 h ([1]; intestine, 120 h p.i., read-out: Biodistribution, Intestine) was 0.43 ± 0.55 %ID/g and the tissue uptake at 1 h ([1]; kidneys, 1 h p.i., read-out: Biodistribution, Kidneys) was 13.2 ± 3.61 %ID/g. For the same compound, the tissue uptake at 4 h ([1]; kidneys, 4 h p.i., read-out: Biodistribution, Kidneys) was 13.5 ± 3.47 %ID/g, the tissue uptake at 24 h ([1]; kidneys, 24 h p.i., read-out: Biodistribution, Kidneys) was 8.1 ± 2.24 %ID/g and the tissue uptake at 120 h ([1]; kidneys, 120 h p.i., read-out: Biodistribution, Kidneys) was 1.85 ± 0.57 %ID/g. For the same compound, the tissue uptake at 1 h ([1]; liver, 1 h p.i., read-out: Biodistribution, Liver) was 2.72 ± 0.27 %ID/g, the tissue uptake at 4 h ([1]; liver, 4 h p.i., read-out: Biodistribution, Liver) was 1.98 ± 0.41 %ID/g and the tissue uptake at 24 h ([1]; liver, 24 h p.i., read-out: Biodistribution, Liver) was 4.7 ± 3.76 %ID/g. The tissue uptake at 120 h ([1]; liver, 120 h p.i., read-out: Biodistribution, Liver) was 0.55 ± 0.18 %ID/g, the tissue uptake at 1 h ([1]; lungs, 1 h p.i., read-out: Biodistribution, Lungs) was 5.51 ± 1.75 %ID/g and the tissue uptake at 4 h ([1]; lungs, 4 h p.i., read-out: Biodistribution, Lungs) was 2.34 ± 1.21 %ID/g. It also gave a tissue uptake at 24 h ([1]; lungs, 24 h p.i., read-out: Biodistribution, Lungs) of 1.19 ± 0.81 %ID/g, a tissue uptake at 120 h ([1]; lungs, 120 h p.i., read-out: Biodistribution, Lungs) of 0.1 ± 0.05 %ID/g and a tissue uptake at 1 h ([1]; muscle, 1 h p.i., read-out: Biodistribution, Muscle) of 0.76 ± 0.14 %ID/g. The tissue uptake at 4 h ([1]; muscle, 4 h p.i., read-out: Biodistribution, Muscle) was 0.17 ± 0.04 %ID/g, the tissue uptake at 24 h ([1]; muscle, 24 h p.i., read-out: Biodistribution, Muscle) was 0.06 ± 0.02 %ID/g and the tissue uptake at 120 h ([1]; muscle, 120 h p.i., read-out: Biodistribution, Muscle) was 0.03 ± 0.01 %ID/g. For the same compound, the tissue uptake at 1 h ([1]; pancreas, 1 h p.i., read-out: Biodistribution, Pancreas) was 1.23 ± 0.18 %ID/g, the tissue uptake at 4 h ([1]; pancreas, 4 h p.i., read-out: Biodistribution, Pancreas) was 0.31 ± 0.1 %ID/g and the tissue uptake at 24 h ([1]; pancreas, 24 h p.i., read-out: Biodistribution, Pancreas) was 0.1 ± 0.01 %ID/g. It also gave a tissue uptake at 120 h ([1]; pancreas, 120 h p.i., read-out: Biodistribution, Pancreas) of 0.06 ± 0.01 %ID/g, a tissue uptake at 1 h ([1]; spleen, 1 h p.i., read-out: Biodistribution, Spleen) of 1.99 ± 0.38 %ID/g and a tissue uptake at 4 h ([1]; spleen, 4 h p.i., read-out: Biodistribution, Spleen) of 0.83 ± 0.1 %ID/g. The tissue uptake at 24 h ([1]; spleen, 24 h p.i., read-out: Biodistribution, Spleen) was 1 ± 0.35 %ID/g, the tissue uptake at 120 h ([1]; spleen, 120 h p.i., read-out: Biodistribution, Spleen) was 0.3 ± 0.12 %ID/g and the tissue uptake at 1 h ([1]; stomach, 1 h p.i., read-out: Biodistribution, Stomach) was 1.2 ± 0.45 %ID/g. For the same compound, the tissue uptake at 4 h ([1]; stomach, 4 h p.i., read-out: Biodistribution, Stomach) was 0.26 ± 0.14 %ID/g, the tissue uptake at 24 h ([1]; stomach, 24 h p.i., read-out: Biodistribution, Stomach) was 0.31 ± 0.17 %ID/g and the tissue uptake at 120 h ([1]; stomach, 120 h p.i., read-out: Biodistribution, Stomach) was 1.83 ± 2.7 %ID/g. For the same compound, the tissue uptake at 1 h ([1]; thyroid, 1 h p.i., read-out: Biodistribution, Thyroid) was 1.68 ± 0.26 %ID/g, the tissue uptake at 4 h ([1]; thyroid, 4 h p.i., read-out: Biodistribution, Thyroid) was 0.51 ± 0.13 %ID/g and the tissue uptake at 24 h ([1]; thyroid, 24 h p.i., read-out: Biodistribution, Thyroid) was 0.24 ± 0.04 %ID/g. For the same compound, the tissue uptake at 120 h ([1]; thyroid, 120 h p.i., read-out: Biodistribution, Thyroid) was 0.15 ± 0.03 %ID/g, the tissue to tissue ratio at 1 h ([1]; tumour/blood, 1 h p.i., read-out: Tumour/blood) was 1.42 ± 0.2 and the tissue to tissue ratio at 4 h ([1]; tumour/blood, 4 h p.i., read-out: Tumour/blood) was 7.97 ± 2.18. It also gave a tissue to tissue ratio at 24 h ([1]; tumour/blood, 24 h p.i., read-out: Tumour/blood) of 60.6 ± 23.8, a tissue to tissue ratio at 120 h ([1]; tumour/blood, 120 h p.i., read-out: Tumour/blood) of 84.4 ± 47.2 and a tissue to tissue ratio at 1 h ([1]; tumour/kidney, 1 h p.i., read-out: Tumour/kidney) of 0.8 ± 0.09. For the same compound, the tissue to tissue ratio at 4 h ([1]; tumour/kidney, 4 h p.i., read-out: Tumour/kidney) was 0.85 ± 0.24, the tissue to tissue ratio at 24 h ([1]; tumour/kidney, 24 h p.i., read-out: Tumour/kidney) was 0.68 ± 0.22 and the tissue to tissue ratio at 120 h ([1]; tumour/kidney, 120 h p.i., read-out: Tumour/kidney) was 0.45 ± 0.21. The tissue to tissue ratio at 1 h ([1]; tumour/muscle, 1 h p.i., read-out: Tumour/muscle) was 13.8 ± 2.48, the tissue to tissue ratio at 4 h ([1]; tumour/muscle, 4 h p.i., read-out: Tumour/muscle) was 65.4 ± 13.7 and the tissue to tissue ratio at 24 h ([1]; tumour/muscle, 24 h p.i., read-out: Tumour/muscle) was 104 ± 53. It also gave a tissue to tissue ratio at 120 h ([1]; tumour/muscle, 120 h p.i., read-out: Tumour/muscle) of 35.6 ± 22.4, an excreta dose per gram or mL at 1 h ([1]; urine, 1 h p.i.) of 322 ± 306 %ID/g and an excreta dose per gram or mL at 4 h ([1]; urine, 4 h p.i.) of 106 ± 97.1 %ID/g. For the same compound, the excreta dose per gram or mL at 24 h ([1]; urine, 24 h p.i.) was 3.17 ± 1.25 %ID/g, the excreta dose per gram or mL at 120 h ([1]; urine, 120 h p.i.) was 0.51 ± 0.21 %ID/g and the “Biodistribution, B16F10 tumour” value (B16F10 mouse melanoma; 1 h p.i.) was 10.6 ± 2.95 % ID/g. The “Biodistribution, B16F10 tumour” value (B16F10 mouse melanoma; 4 h p.i.) was 10.9 ± 2.22 % ID/g, the “Biodistribution, B16F10 tumour” value (B16F10 mouse melanoma; 24 h p.i.) was 5.50 ± 2.36 % ID/g and the “Biodistribution, B16F10 tumour” value (B16F10 mouse melanoma; 120 h p.i.) was 0.88 ± 0.58 % ID/g.
